Measurements taken from patent publication US20250325531A1, “TREATMENT OF SYSTOLIC DYSFUNCTION” (MyoKardia, Inc., priority 2024, published 2025).
Several values for one entry are separate records, joined by “and”; a condition that tells them apart may be missing. Equal values may be shown once.

Assay: Pharmacokinetics of multiple ascending doses (MAD Cohorts A-D) in patients with stable HFrEF
Assay type: in vivo, human
Details: for Accumulation Index: estimated based λz and Tau
From the text: This was a randomized, parallel-group, DB, placebo-controlled, adaptive design, sequential ascending (oral) multiple-dose study in stable patients with heart failure. Four MAD Cohorts (A, B, C, D) were enrolled (FIG. 5B). An SRC reviewed results from each cohort and determined the dose and confirmed initial sample size for the subsequent cohort. Additionally, the first 3 patients in each cohort had LVEF ≥25%; the SRC reviewed preliminary safety data from these patients and decided whether to open cohort enrollment to patients with LVEF <25%.
After Screening and qualification, patients were confined to a clinical testing facility from Day 1 (Check-in) to Day 11. Each patient initially received placebo BID for 2 days (Days 1 and 2) in single-blinded manner (“run-in” during acclimatization to confinement in the Clinical Testing Unit) prior to receiving the randomized DB study drug treatment on Day 3. All patients then received either placebo or active Compound I for 7 days (Days 3 through 9), with a follow-up period with patients discharged from the unit on Day 11. A final follow-up clinic visit was conducted on Day 16. More than one patient could be dosed in a cohort at the same time or during the same week depending on administrative issues, i.e., capacity and scheduling.
Patients were dosed twice daily (every 12 hours). Doses could occur ±2 hours from scheduled dosing times as long as doses were separated by at least 10 hours and by no more than 14 hours. The exception to the twice daily dosing was on Day 9 (last dose of randomized DB study drug treatment). On Day 9, a single morning dose was administered.
During the study, multiple evaluations were performed that included: serial TTE assessments (11-14 TTEs per patient on Days 1, 2, 3, 4, 7, 9, 10 and 11); PK sampling (PK sample collected concomitantly with every post-randomization echocardiogram); ECGs (on Days 2, 3, 4, 7, 9, 10, 11 and 16); troponin (collected concomitantly with every post-randomization ECG); and safety laboratory assessments. Confined patients underwent continuous telemetry. Holter monitoring was performed in all patients at baseline (Days 1-2) and at the end of double-blind treatment (Days 7-9). Vital signs were collected daily.
Study medication consisted of Compound I 5 mg tablets, 25 mg tablets, 100 mg tablets, or matching placebo tablets. In Part 1 (SAD), Compound I or placebo was administered after an overnight fast (at least 6 hours), while in Part 2 (MAD), Compound I was administered after a 2 hour fast (Cohort A) or with food (Cohorts B, C, and D). The dose was ingested with a minimum of 240 mL of water, but more water was ingested as needed. The entire dose was administered over a period of up to 15 minutes. The time of dose used to determine future assessments was the time the last tablet was taken. In the cohorts for Part 2 (MAD), a BID regimen was used.
In Part 2 (MAD), Cohort A patients fasted for 2 hours before and 2 hours after dosing. For example, if morning dosing occurred at 8 AM, patients could have a snack at 6 AM and a full breakfast at 10 AM. If afternoon dosing occurred at 8 PM, patients could have dinner at 6 PM and a snack at 10 PM. […] Cohort B, C, and D patients ingested food with each dose.
A total of 40 subjects across 4 cohorts received 7 days of treatment with placebo or Compound I at doses of 50 mg (with food), 75 mg (1 cohort with food, 1 cohort with […]), or 100 mg (with food), BID (see FIG. 5B and Table 14).

[1] = MAD Cohort A (75 mg BID, 4 h fasting), individual subjects
[2] = MAD Cohort B (50 mg BID, with food), Mean
[3] = MAD Cohort C (75 mg BID, with food), individual subjects

SMILES: Cn1cc(S(=O)(=O)[C@@](C)(F)C2CCN(C(=O)Nc3ccon3)CC2)c(C(F)F)n1 [Compound I, (R)-4-(1-((3-(difluoromethyl)-1-methyl-1H-pyrazol-4-yl)sulfonyl)-1-fluoroethyl)-N-(isoxazol-3-yl) piperidine-1-carboxamide]
- Steady-state (Day 9) post-dose maximum concentration (Cohort A + C (n = 14), 75 mg BID): 3862 (27.7%) ng/mL
- Steady-state (Day 9) post-dose maximum concentration (Cohort B (n = 8), 50 mg BID): 2735 (17.5%) ng/mL
- Steady-state (Day 9) post-dose maximum concentration (Cohort D (n = 6), 100 mg BID): 5560 (22.8%) ng/mL
- Accumulation Index (MAD Cohort A (75 mg BID, 4 h fasting), Mean): 3.11
- AUCtau, Day 1 [1]: 10610 ng·h/mL
- Accumulation Index [1]: 3.82 and 3.89 and 2.79* and 2.21 and 3.00 and 2.61
- Cmax, SS [2]: 2771 ng/mL
- Accumulation Index [2]: 3.55
- Accumulation Index (MAD Cohort B (50 mg BID, with food), individual subjects): 3.63 and 5.03 and 4.46 and 2.93 and 3.51 and 2.42 and 3.20 (2×) and 4.23*
- Accumulation Index (MAD Cohort C (75 mg BID, with food), Mean): 3.18
- AUCtau, Day 1 [3]: 10560 ng·h/mL
- Accumulation Index [3]: 2.18 and 2.39 and 2.99 and 3.31 and 5.51 and 2.43 and 2.20 and 4.17 and 3.42
- Accumulation Index (MAD Cohort D (100 mg BID, with food), Mean): 3.30
- Accumulation Index (MAD Cohort D (100 mg BID, with food), individual subjects): 3.46 and 3.77 and 3.06 and 3.31 and 2.61 and 3.62
